The source of these data is patent US8329222B1, “Magnetic nanomedicine for tumor suppression and therapy” (priority 2011, dated 2012).

Each structure is given as a SMILES string.

The test system of assay [1] is human bladder tumor cells (MGH-U1). The assay can be described thus: XTT growth suppression test on bladder tumor cells. Type of assay: cell-based. The conditions noted are these: cultivated with MGH-U1 for 27 hours, no magnetic field, read-out: cell growth inhibit efficiency. For orientation: Formazan colour is commonly taken as a measure of viable cells.
Protocol: Cell Cultivation: Place 150 μL of a mixture liquid containing 10,000 human bladder tumor cells (MGH-U1) into each well of 96-well culture plate. Place the culture plate in a humidified incubator in a temperature of 37° C. and with 5% CO2 to enable adherent growth of the cells.
Agent Addition: 24 hours later, mix separately MNPs (concentration 600 μg/mL) EPI (concentrations 2, 5, 10 μM), and EPI/SPAnH/MNPs magnetic nanomedicine (concentrations 2, 5, 10 μM) with a RPMI1640 medium to form mixed solutions. Add respectively 50 μL of the mixed solutions to well, and then place the culture plate in a humidified incubator having 5% CO2 for 2, 4, 6, 10, and 27 hours.
Cell Counting: Remove RPMI1640 medium in the well and add 120 μL of an XTT reaction liquid (2,3-Bis(2-methoxy-4-nitro-5-sulfophenyl)-2H-tetrazolium-5-carboxanilide inner salt) to the wells. Use an ELISA reader (BIO-TEK, model EL 808) to measure the OD (Optical Density) values of each cell at a wavelength of 490 nm to determine the toxicity of SPAnH/MNPs magnetic nanocomposite and the cell-killing rate of EPI/SPAnH/MNPs magnetic nanomedicines to the bladder tumor cells.
Cell Cultivation: Place 150 μL of a mixture liquid containing 10,000 human bladder tumor cells (MGH-U1) into each well of 96-well culture plate. […]
Assay [2] concerns bladder tumor cells MGH-U1. The assay can be described thus: Fluorescence microscopy of cell entry after 4 hours. The following applies: reacted 4 hours, fluorescent microscope photos. Type of assay: cell-based, human. On the procedure: Add 2 mL of a mixture liquid containing 20,000 bladder tumor cells MGH-U1 to a 3.5 cm diameter cultivation plate. Place the cultivation plate in a humidified incubator having 5% CO2 in a temperature of 37° C. to enable adherent growth of the cells. Twenty-four hours later, add to the cultivation plate, 100 μL of RPMI1640 medium containing EPI, EPI/SPAnH/MNPs magnetic nanomedicine, DOX, and DOX/SPAnH/MNPs magnetic nanomedicine to react for 4 hours, then flush it with 1 mL of Hanks' balance slat solution (HBSS).

For `COc1cccc2c1C(=O)c1c(O)c3c(c(O)c1C2=O)C[C@@](O)(C(=O)CO)C[C@@H]3O[C@H]1C[C@H](N)[C@H](O)[C@H](C)O1` [DOX, Doxorubicin], the inhibition at 10 µM in assay [1] worked out at 66.2%. For the same compound, the “entry into bladder tumor cell MGH-U1” value in assay [2] is on record as “do enter into the bladder tumor cell MGH-U1”.

Consider `COc1cccc2c1C(=O)c1c(O)c3c(c(O)c1C2=O)C[C@@](O)(C(=O)CO)C[C@@H]3O[C@H]1C[C@H](N)[C@@H](O)[C@H](C)O1` [EPI, Epirubicin], for which the inhibition at 10 µM in assay [1] amounted to 64.3%. For the same compound, the “entry into bladder tumor cell MGH-U1” value in assay [2] is on record as “do enter into the bladder tumor cell MGH-U1”.
